Measured values reported in paper PMC9643456, “Matching amino acids membrane preference profile to improve activity of antimicrobial peptides” (Communications Biology, 2022).
Like-named read-outs stand apart in the source and are kept apart here. Square brackets hold non-standard residues; d marks the D form. Ends that are not written are not given here. Peptide text beside a SMILES is read from it.

Test system: human red blood cells
Assay: Hemolytic activity
Type: cell-based
Protocol: Human red blood cells (Zenbio, North Carolina, USA) and peptides were separately diluted in PBS (blood concentration, 8%). The blood cell and peptide solutions were then mixed in 96-well polyethylene plates (SPL, Gyeonggi-do, Korea) and incubated for 18 h at 37 °C. The final concentration of human red blood cells was 4%, while peptide concentrations were 100 μM, 50 μM, 25 μM, 12.5 μM, 6.25 μM, 3.13 μM, 1.56 μM, and 0.78 μM. After incubation, the plates were centrifuged at 1000 × g for 5 min, and the supernatants were transferred to 96-well polyethylene plates. Hemolysis levels were determined by measuring the absorbance at 540 nm with a SpectraMax plate spectrophotometer (Molecular Devices, California, USA). Control samples were treated with 1% Triton X-100 (for 100% hemolysis) or solution with 0 μM peptide (for 0% hemolysis) and melittin (for positive control). Each experiment was performed in triplicate.

Molecule | Hemolysis percent, 25 μM [%] | Hemolysis percent, 25 μM (red cells of human, 18 h, 25) [%] | Hemolysis percent, 50 μM (red cells of human, 18 h) [%] | Hemolysis percent, 100 μM (red cells of human, 18 h) [%]
CCCCCCCCCC(=O)N[C@@H](Cc1c[nH]c2ccccc12)C(=O)N[C@H](CC(N)=O)C(=O)N[C@@H](CC(=O)O)C(=O)N[C@@H]1C(=O)NCC(=O)N[C@@H](CCCN)C(=O)N[C@@H](CC(=O)O)C(=O)N[C@H](C)C(=O)N[C@@H](CC(=O)O)C(=O)NCC(=O)N[C@H](CO)C(=O)N[C@@H]([C@H](C)CC(=O)O)C(=O)N[C@@H](CC(=O)c2ccccc2N)C(=O)O[C@@H]1C [Daptomycin, reference compound] | 0.01 ±0.02 | 0.01 | 0.03 | 0.04 ±0.02
CC[C@@H](C)[C@@H](NC(=O)[C@@H](Cc1c[nH]c2ccccc12)NC(=O)[C@@H](CC(C)C)NC(=O)[C@@H](CC(C)C)NC(=O)[C@H](N)Cc1c[nH]c2ccccc12)C(=O)N[C@H](C)C(=O)N[C@H](CC(C)C)C(=O)N[C@H](CCCNC(=N)N)C(=O)N[C@H](CCCCN)C(=O)N[C@H](CCCCN)C(=O)N[C@H](CCCNC(=N)N)C(N)=O [WCopW3] (H-[dW][dL][dL][dW][dI][dA][dL][dR][dK][dK][dR]-NH2) |  | 3.64 | 9.36 | 13.37
CC[C@@H](C)[C@@H](NC(=O)[C@@H](Cc1c[nH]c2ccccc12)NC(=O)[C@H](NC(=O)[C@@H](CC(C)C)NC(=O)[C@H](N)Cc1c[nH]c2ccccc12)C(C)C)C(=O)N[C@H](Cc1c[nH]c2ccccc12)C(=O)N[C@H](CCCNC(=N)N)C(=O)N[C@H](CCCNC(=N)N)C(=O)N[C@H](CCC(=O)O)C(=O)N[C@H](CCC(N)=O)C(N)=O [WCopW34] (H-[dW][dL][dV][dW][dI][dW][dR][dR][dE][dQ]-NH2) |  | -0.18 | -0.17 | -0.14
CC[C@@H](C)[C@@H](NC(=O)[C@@H](Cc1c[nH]c2ccccc12)NC(=O)[C@@H](CC(C)C)NC(=O)[C@H](N)CC(C)C)C(=O)N[C@H](C)C(=O)N[C@H](CC(C)C)C(=O)N[C@H](CCCCN)C(=O)N[C@H](CCCCN)C(=O)N[C@H](CCCCN)C(=O)N[C@H](CCCCN)C(N)=O [WCopW12] (H-[dL][dL][dW][dI][dA][dL][dK][dK][dK][dK]-NH2) |  | 0.98 | 0.98 | 0.98
CC[C@@H](C)[C@@H](NC(=O)[C@@H](Cc1c[nH]c2ccccc12)NC(=O)[C@@H](CC(C)C)NC(=O)[C@H](N)CC(C)C)C(=O)N[C@H](C)C(=O)N[C@H](CC(C)C)C(=O)N[C@H](CCCNC(=N)N)C(=O)N[C@H](CCCCN)C(=O)N[C@H](CCCCN)C(=O)N[C@H](CCCNC(=N)N)C(N)=O [WCopW11] (H-[dL][dL][dW][dI][dA][dL][dR][dK][dK][dR]-NH2) |  | 0.94 | 1.02 | 1.08
CC[C@@H](C)[C@@H](NC(=O)[C@@H](Cc1c[nH]c2ccccc12)NC(=O)[C@H](NC(=O)[C@@H](CC(C)C)NC(=O)[C@H](N)Cc1c[nH]c2ccccc12)C(C)C)C(=O)N[C@H](Cc1ccc(O)cc1)C(=O)N[C@@H](C(=O)N[C@H](CCCNC(=N)N)C(=O)N[C@H](CCCCN)C(=O)N[C@H](CCCCN)C(=O)N[C@H](CCCNC(=N)N)C(N)=O)C(C)C [WCopWVY3] (H-[dW][dL][dV][dW][dI][dY][dV][dR][dK][dK][dR]-NH2) |  | 1.92 | 5.67 | 7.01
CC(C)[C@@H](NC(=O)[C@H](N)Cc1c[nH]c2ccccc12)C(=O)N[C@@H](C(=O)N[C@H](Cc1c[nH]c2ccccc12)C(=O)N[C@@H](C(=O)N[C@H](Cc1c[nH]c2ccccc12)C(=O)N[C@H](CCCNC(=N)N)C(=O)N[C@H](CCCNC(=N)N)C(=O)N[C@H](CCCNC(=N)N)C(N)=O)C(C)C)C(C)C [WCopW40] (H-[dW][dV][dV][dW][dV][dW][dR][dR][dR]-NH2) |  | 0.45 | 0.59 | 2.14
CC[C@@H](C)[C@@H](NC(=O)[C@@H](Cc1c[nH]c2ccccc12)NC(=O)[C@@H](CC(C)C)NC(=O)[C@@H](CC(C)C)NC(=O)[C@H](N)Cc1c[nH]c2ccccc12)C(=O)N[C@H](C)C(=O)N[C@H](CC(C)C)C(=O)N[C@H](CCCNC(=N)N)C(=O)N[C@H](CCCCN)C(=O)N[C@H](CCCCN)C(N)=O [WCopW6] (H-[dW][dL][dL][dW][dI][dA][dL][dR][dK][dK]-NH2) |  | 4.12 | 7.05 | 18.06
CC[C@@H](C)[C@@H](NC(=O)[C@@H](Cc1c[nH]c2ccccc12)NC(=O)[C@H](NC(=O)[C@@H](CC(C)C)NC(=O)[C@H](N)Cc1c[nH]c2ccccc12)C(C)C)C(=O)N[C@H](Cc1c[nH]c2ccccc12)C(=O)N[C@H](CCCNC(=N)N)C(=O)N[C@H](CCCNC(=N)N)C(=O)N[C@H](CCCCN)C(=O)N[C@H](CCCNC(=N)N)C(N)=O [WCopW28] (H-[dW][dL][dV][dW][dI][dW][dR][dR][dK][dR]-NH2) |  | 2.33 | 1.97 | 5.26
CC[C@@H](C)[C@@H](NC(=O)[C@@H](Cc1c[nH]c2ccccc12)NC(=O)[C@H](NC(=O)[C@@H](CC(C)C)NC(=O)[C@H](N)Cc1c[nH]c2ccccc12)C(C)C)C(=O)N[C@H](Cc1ccc(O)cc1)C(=O)N[C@H](CCCNC(=N)N)C(=O)N[C@H](CCCNC(=N)N)C(=O)N[C@H](CCCNC(=N)N)C(N)=O [WCopW33] (H-[dW][dL][dV][dW][dI][dY][dR][dR][dR]-NH2) |  | 3.49 | 6.35 | 9.93
CC[C@@H](C)[C@@H](NC(=O)[C@@H](Cc1c[nH]c2ccccc12)NC(=O)[C@H](NC(=O)[C@@H](CC(C)C)NC(=O)[C@H](N)Cc1c[nH]c2ccccc12)C(C)C)C(=O)N[C@H](Cc1c[nH]c2ccccc12)C(=O)N[C@H](CCCNC(=N)N)C(=O)N[C@H](CCCNC(=N)N)C(=O)N[C@H](CCC(N)=O)C(=O)N[C@H](CCCNC(=N)N)C(N)=O [WCopW31] (H-[dW][dL][dV][dW][dI][dW][dR][dR][dQ][dR]-NH2) |  | 0.35 | 1.82 | 6.88
CC[C@@H](C)[C@@H](NC(=O)[C@@H](Cc1c[nH]c2ccccc12)NC(=O)[C@H](NC(=O)[C@@H](CC(C)C)NC(=O)[C@H](N)Cc1c[nH]c2ccccc12)C(C)C)C(=O)N[C@H](Cc1c[nH]c2ccccc12)C(=O)N[C@H](CCC(N)=O)C(=O)N[C@H](CCCNC(=N)N)C(=O)N[C@H](CCCNC(=N)N)C(=O)N[C@H](CCCNC(=N)N)C(N)=O [WCopW30] (H-[dW][dL][dV][dW][dI][dW][dQ][dR][dR][dR]-NH2) |  | 0.32 | 2.74 | 4.92
CC[C@@H](C)[C@@H](NC(=O)[C@@H](Cc1c[nH]c2ccccc12)NC(=O)[C@H](NC(=O)[C@@H](CC(C)C)NC(=O)[C@H](N)Cc1c[nH]c2ccccc12)C(C)C)C(=O)N[C@H](Cc1ccc(O)cc1)C(=O)N[C@H](CCCNC(=N)N)C(=O)N[C@H](CCCCN)C(=O)N[C@H](CCCCN)C(=O)N[C@H](CCCNC(=N)N)C(N)=O [WCopWVY4] (H-[dW][dL][dV][dW][dI][dY][dR][dK][dK][dR]-NH2) |  | 1.86 | 2.57 | 5.57
CC[C@@H](C)[C@@H](NC(=O)[C@@H](CC(C)C)NC(=O)[C@H](N)Cc1c[nH]c2ccccc12)C(=O)N[C@H](Cc1c[nH]c2ccccc12)C(=O)N[C@@H](C(=O)N[C@H](Cc1ccc(O)cc1)C(=O)N[C@H](CCCNC(=N)N)C(=O)N[C@H](CCCCN)C(=O)N[C@H](CCCCN)C(=O)N[C@H](CCCNC(=N)N)C(N)=O)C(C)C [WCopW27] (H-[dW][dL][dI][dW][dV][dY][dR][dK][dK][dR]-NH2) |  | 1.82 | 3.95 | 7.43
CC(C)C[C@@H](NC(=O)[C@H](N)Cc1c[nH]c2ccccc12)C(=O)N[C@@H](C(=O)N[C@H](Cc1c[nH]c2ccccc12)C(=O)N[C@@H](C(=O)N[C@H](Cc1ccc(O)cc1)C(=O)N[C@H](CC(C)C)C(=O)N[C@H](CCCNC(=N)N)C(=O)N[C@H](CCCCN)C(=O)N[C@H](CCCCN)C(=O)N[C@H](CCCNC(=N)N)C(N)=O)C(C)C)C(C)C [WCopWVY2] (H-[dW][dL][dV][dW][dV][dY][dL][dR][dK][dK][dR]-NH2) |  | 3.46 | 6.02 | 10.12
CC(C)C[C@@H](NC(=O)[C@H](N)Cc1c[nH]c2ccccc12)C(=O)N[C@@H](C(=O)N[C@H](Cc1c[nH]c2ccccc12)C(=O)N[C@H](CO)C(=O)N[C@H](Cc1c[nH]c2ccccc12)C(=O)N[C@H](CCCNC(=N)N)C(=O)N[C@H](CCCNC(=N)N)C(=O)N[C@H](CCCNC(=N)N)C(N)=O)C(C)C [WCopW39] (H-[dW][dL][dV][dW][dS][dW][dR][dR][dR]-NH2) |  | 0.09 | 0.06 | 0.36
WLLWIALRKKR-NH2 [WCopW2] |  | 8.19 | 11.43 | 23.10
CC[C@@H](C)[C@@H](NC(=O)[C@@H](Cc1c[nH]c2ccccc12)NC(=O)[C@@H](CC(C)C)NC(=O)[C@@H](CC(C)C)NC(=O)[C@H](N)Cc1c[nH]c2ccccc12)C(=O)N[C@H](C)C(=O)N[C@H](CC(C)C)C(=O)N[C@H](CCCNC(=N)N)C(=O)N[C@H](CCCCN)C(=O)N[C@H](CCCCN)C(N)=O [WCopW7] (H-[dW][dL][dL][dW][dI][dA][dL][dR][dK][dK]-NH2) |  | 7.25 | 10.05 | 14.99
